Here are results for eight compounds from US9439904B2, “Pyrimidine compounds and their use as gamma secretase modulators” (Acturum Life Science AB, priority 2013, dated 2016).

In assay [1] the test system is Aβ42. Description: PCN assay: Aβ42 secreted by primary cortical neuronal cells, ELISA. The assay is classed as cell-based. Particulars: primary cortical neuronal cells from 16-day mouse embryos; 16-20 hours incubation with test compound; read-out: pIC50 Aβ42 PCN assay (converted). The procedure: Compounds were diluted in 100% DMSO and stored at […] prior to use. Primary cortical neuronal cells (PCN) were isolated from 16-day mouse embryos and cultured in Ham's F12 media containing 10% Foetal bovine serum, 10 mM Hepes, 2 mM L-glutamine and 100 U/mL Penicillin-Streptomycin. 150000-250000 cells/well, in 200 μL cell media were seeded onto 96-well poly-D-Lysine coated plates. After incubation at 37° C., 5% CO2 for five days, the media was exchanged for fresh medium containing test compound diluted ×100, before further incubation for 16-20 hours at 37° C. and 5% CO2. After incubation with test compound the amount of […] secreted to cell medium was analyzed using the solid phase sandwich Enzyme-Linked-Immuno-Sorbent Assay (ELISA)-kit from Invitrogen for detection of mouse βAmyloid 1-42. Potential cytotoxic effects of the compounds were assayed by measuring the ATP content (Via Light) from cell lysate.
In general terms: An ELISA detects its analyte on a solid surface through an enzyme-linked reagent.

For assay [2], the system named is Aβ42. Kind of assay: HEK assay: Aβ42 secreted to cell medium, Meso Scale Discovery electrochemiluminescence. The note with it: Homo sapiens, HEK293; HEK cell line stably expressing APPswe; 4-6 hours incubation with test compound; read-out: pIC50 Aβ42 HEK assay (converted). Format: cell-based. The procedure:
Compounds were diluted in 100% DMSO and stored at […] prior to use. Human Embryonic Kidney (HEK) cell line stably expressing APP with the Swedish mutation (APPswe) was cultured using Dulbecco's Modified Eagles medium (DMEM) supplied with […] glucose, Na-pyruvate and GlutaMAX, 10% Foetal bovine serum, 100 U/mL penicillin-streptomycin (PEST), 1× non-essential amino acids (NEAA), […] Hepes, 100 μg/mL Zeocine. Cells at about 80% confluence were washed with PBS, detached from culture flasks using 1× Trypsin/EDTA diluted in PBS, re-suspended in cell media and plated in 384-well poly-d-lysine coated cell culture plates at about 10000-15000 cells/well, in 25 μL cell media. Optionally, cryo-preserved cells (frozen and stored at −140° C. in 90% cell media and 10% DMSO) were thawed, washed and plated as above. Next the cells were incubated for 15-24 h at 37° C. and 5% CO2, after which cell medium was changed. Fresh medium containing test compound diluted ×200 from prepared compound plate was added to the cells before further incubation for 4-6 hours at 37° C. and 5% CO2. After incubation with test compound the amount of Aβ peptides, including Aβ42, Aβ40, Aβ39, Aβ38 and Aβ37, secreted to cell medium was analyzed using the electrochemiluminescence assay technology from Meso Scale Discovery Technology, in combination with specific antibodies raised against the different Aβ peptides. Potential cytotoxic effects of the compounds were assayed by measuring the ATP content (ViaLight) from cell lysate.

For the compound `COc1cn(-c2ccc(Nc3nc(COCC(F)(F)F)cc(C(C)O)n3)cc2OC)cn1` (stereo not shown) [Example 31, 1-(2-(3-Methoxy-4-(4-methoxy-1H-imidazol-1-yl)phenylamino)-6-((2,2,2-trifluoroethoxy)-methyl)pyrimidin-4-yl)ethanol], the IC50 was 316 nM in assay [1] and 251 nM in assay [2].

As to `COc1cc(Nc2nc(COCC(F)(F)F)cc(NCC(C)(C)O)n2)ccc1-n1cnc(C)c1` [Example 36, 1-(2-(3-Methoxy-4-(4-methyl-1H-imidazol-1-yl)phenylamino)-6-((2,2,2-trifluoroethoxy)-methyl)pyrimidin-4-ylamino)-2-methylpropan-2-ol], the IC50 is 39.8 nM in assay [1] and 63.1 nM in assay [2].

`COc1cc(Nc2nc(COCC(F)(F)F)cc(C(O)CC3CC3)n2)ccc1-n1cnc(C)c1` (stereo not shown) [Example 13, 2-Cyclopropyl-1-(2-(3-methoxy-4-(4-methyl-1H-imidazol-1-yl)phenylamino)-6-((2,2,2-trifluoroethoxy)methyl)pyrimidin-4-yl)ethanol]: the IC50 is 50.1 nM in assay [1] and 20 nM in assay [2].

As to `COc1cn(-c2ccc(Nc3nc(COCC(F)(F)F)cc(C(C)(C)O)n3)cc2OC)cn1` [Example 32, 2-(2-(3-Methoxy-4-(4-methoxy-1H-imidazol-1-yl)phenylamino)-6-((2,2,2-trifluoroethoxy)-methyl)pyrimidin-4-yl)propan-2-ol], the IC50 in assay [1] is 316 nM; in assay [2], 100 nM.

As for `COc1cc(Nc2nc(COCC3CC3)cc(C(C)(C)O)n2)ccc1-n1cnc(C)c1` [Example 29, 2-(6-((Cyclopropylmethoxy)methyl)-2-(3-methoxy-4-(4-methyl-1H-imidazol-1-yl)phenylamino)pyrimidin-4-yl)propan-2-ol], the IC50 was 63.1 nM in assay [1] and 39.8 nM in assay [2].

For the compound `COc1cc(Nc2nc(COCC(F)(F)F)cc(NC3COC3)n2)ccc1-n1cnc(C)c1` [Example 35, N^2-(3-Methoxy-4-(4-methyl-1H-imidazol-1-yl)phenyl)-N^4-(oxetan-3-yl)-6-((2,2,2-trifluoroethoxy)methyl)pyrimidine-2,4-diamine], the results for the IC50 in assay [1] and in assay [2] were 25.1 nM and 50.1 nM, respectively.

Take `COc1cc(Nc2nc(COCC(F)(F)F)cc(C(C)(O)C(C)C)n2)ccc1-c1cnc(C)o1` (stereo not shown) [Example 48, 2-(2-(3-Methoxy-4-(2-methyloxazol-5-yl)phenylamino)-6-((2,2,2-trifluoroethoxy)methyl)-pyrimidin-4-yl)-3-methylbutan-2-ol]: the IC50 in assay [1] is 50.1 nM; in assay [2], 25.1 nM.

Turning to `COc1cc(Nc2nc(COCC(F)(F)F)cc(CN3CC(F)C3)n2)ccc1-n1cnc(C)c1` [Example 40, 4-((3-Fluoroazetidin-1-yl)methyl)-N-(3-methoxy-4-(4-methyl-1H-imidazol-1-yl)phenyl)-6-((2,2,2-trifluoroethoxy)methyl)pyrimidin-2-amine], the IC50 in assay [1] was 100 nM; in assay [2] it was 126 nM.
